Reference: patent US20220288091A1, “Method for Improving Insulin Sensitivity” (priority 2019, published 2022)

Columns and labels:
[1] = test system: hypothalamic-pituitary-adrenal axis; experiment: 24-hour urinary free cortisol (UFC); type: in vivo, human; conditions: 50 mg every 6 hours for 9 days; for Urinary Free Cortisol (24-hour UFC): mean±SD, n=16, normal 3.5-45
Description: Urine cortisol and other surrogate biochemical markers of HPA activation: This includes all tests currently available or subsequently developed that may be used to evaluate the effects of GRA dose and schedule on the HPA axis. Normal 24-hour urine free cortisol (UFC) levels range from […] when measured in most tandem mass spectrometry assays. Values are higher when measured by immunoassays because of cross-reactivity with the antibodies used in those assays with other steroids that are structurally similar to cortisol. Measurement of UFC by tandem mass spectrometry is the preferred method to assess the effect of GRAs on the HPA axis for three reasons: 1. ease of collection, 2. specificity of the assay (it measures only cortisol) and 3. the well-established range of values seen in physiologic stress, or Pseudo-Cushing's syndrome, which is 1-3 times the upper limit of the normal reference range. However, other biochemical tests may be used as surrogate biochemical markers of the HPA axis, including, but not limited to measurement of serum or salivary cortisol at multiple time-points throughout a 24 hour period, including both the day and night, which is expressed as either the mean value or the area under the curve. Normal ranges for all cortisol assays and 24-hour assessments will vary depending on the assay technique, and reagents, and must be used based on locally-determined values, or values provided by the manufacturer of an assay kit. The results obtained from any of these assays are then used to determine whether the dosage of the one or more GR antagonists need to be adjusted upwards or downwards so as to maintain 24-hour serum or urinary free cortisol levels at no more than about two or three times the upper level of the normal range, respectively.
Initially, 19 subjects underwent randomization. […]
To reduce potential variability associated with estrogen in premenopausal women, testing was performed in the early follicular phase (days 1-7 of menstrual cycle). Baseline height and weight were measured after an overnight fast. […]

[2] = Body weight, blood pressure and serum lipids after 9-day administration; type: in vivo, human; conditions: 50 mg every 6 hours for 9 days; mean±SD, n=16
Experimental: To reduce potential variability associated with estrogen in premenopausal women, testing was performed in the early follicular phase (days 1-7 of menstrual cycle). Baseline height and weight were measured after an overnight fast. Subjects received an isocaloric regular diet during the inpatient part of the study, and those on metformin took the same dose throughout the study. Baseline testing took place took place over three inpatient days at the NIH Clinical Center, during which fasting blood was drawn, 24-hour urine was collected, 24-hour serial blood draws were obtained, and patients received both a […] (FSIVGTT) and a 75-g oral glucose tolerance test (OGTT). Subjects were then randomized to receive placebo or mifepristone for 9 days, of which the first 6 days the subjects returned home, and the final 3 days subjects underwent the same metabolic testing as during the baseline period. Subjects randomized to the mifepristone treatment arm were instructed to take one capsule (50 mg) every 6 hours (200 mg/day) over the course of 9 days. The placebo treatment arm received the same instructions to take one capsule every 6 hours over the course of the 9-day treatment period. Following the completion of the post-drug testing, subjects entered a 6-8 week washout period, after which they were crossed over to the other treatment arm, serving as their own controls for the study drug treatments.
Changes in body weight, BP and serum lipid concentrations for each study subject were evaluated at baseline and after 9-day administration of mifepristone or placebo, There were no significant differences observed in body weight or BMI between the treatment arms. BP was higher after mifepristone treatment for both systolic and diastolic values.

For CC#C[C@]1(O)CC[C@H]2[C@@H]3CCC4=CC(=O)CCC4=C3[C@@H](c3ccc(N(C)C)cc3)C[C@@]21C [Mifepristone, 11beta-[p-(dimethylamino)phenyl]-17alpha-(1-propynl)estra-4,9-dien-17beta-ol-3-one], the “Urinary Free Cortisol (24-hour UFC)” value [1] was 74.1 ± 75.3 μg/24 hr, the “Urinary Free Cortisol (24-hour UFC)” value ([1]; listed as mifepristone) was 74.1±75.3 μg/24 hr and the “Post-treatment mean UFC in the 8 subjects above the normal limit” value ([1]; subgroup of 8 subjects) was 120.4±83.9 μg/24 hr. The “Body-Mass Index” value [2] was 32.2 ± 3.9 kg/m^2, the “Diastolic Blood Pressure” value [2] was 77 ± 9.2 mmHg and the “HDL Cholesterol” value [2] was 41.3 ± 11.9 mg/dL. The “LDL Cholesterol” value [2] was 97.1 ± 34.6 mg/dL, the “Systolic Blood Pressure” value [2] was 130 ± 13 mmHg and the “Total Cholesterol” value [2] was 163.6 ± 419 mg/dL. The Triglycerides [2] was 125.6 ± 65.6 mg/dL.
